In article PMC2818883 (Inorganic chemistry, 2010):
Where two headings read alike, the source gives them in different places. Values belong to the molecule of their own block, whether it stands above or below them.

Legend:
[1] = test system: HIV; conditions: cited from earlier work
[2] = test system: HIV-1 (IIIB) and HIV-2 (ROD) strains; type: cell-based; conditions: for IC50: read-out: IC50 values, text summary over HIV-1 (IIIB) and HIV-2 (ROD) strains
[3] = test system: MT-4 cells; experiment: Cytotoxicity evaluation in uninfected MT-4 cells; type: cell-based
[4] = test system: HIV-2 (ROD); experiment: Anti-HIV activity in MT-4 cell cultures, HIV-2; type: cell-based; conditions: read-out: av. IC50, average, MT-4 cells

Molecule: c1cc(CN2CCCNCCNCCCNCC2)ccc1CN1CCCNCCNCCCNCC1 [AMD3100, xylylbicyclam]
IC50 ([1]; read-out: IC50 against HIV, entry inhibitor drug against HIV): < 0.1 µM

Molecule: O=S(=O)([O-])[O-].O=S(=O)([O-])[O-].[O]=[V+2].[O]=[V+2].c1cc(CN2CCCNCCNCCCNCC2)ccc1CN1CCCNCCNCCCNCC1 [Complex 3, oxovanadium(IV)-(xylylbicyclam) disulfate]
antiviral (anti-HIV) activity in words [2]: highly active
IC50 [2]: 1 to 5 µM
CC50 [3]: > 151 µM
IC50 [4]: 3.3 µM

Molecule: [Cl-].[Cl-].[Cl-].[Cl-].[O]=[V+2].[O]=[V+2].c1cc(CN2CCCNCCNCCCNCC2)ccc1CN1CCCNCCNCCCNCC1 [Complex 4, oxovanadium(IV)-(xylylbicyclam) tetrachloride]
antiviral (anti-HIV) activity in words [2]: highly active
IC50 [2]: 0.1 to 0.3 µM
CC50 ([3]; read-out: av. CC50, average, uninfected MT-4 cells): > 161 µM
CC50 ([3]; single determinations, reduces viability of uninfected MT-4 cells by 50%): > 161 µM

Molecule: Co(III)-cyclam
anti-HIV activity of metal cyclams in words [1]: inactive

Molecule: Pd(II)-cyclam
anti-HIV activity of metal cyclams in words [1]: inactive

IC50 [2]: > 360 µM
Molecule: oxovanadium(IV)-cyclam dichloride [Complex 2]
antiviral (anti-HIV) activity in words [2]: inactive

IC50 [2]: > 340 µM
Molecule: oxovanadium(IV)-cyclam sulfate [Complex 1]
antiviral (anti-HIV) activity in words [2]: inactive
